Results from patent US11267825B2 (AICURIS GMBH & CO. KG, priority 2017, dated 2022).

Tests used:
[1] = tested on: HBV; assay: Determination of HBV DNA from the supernatants of HepAD38 cells (anti-HBV activity); type: cell-based, hepatitis B virus; conditions: Hepatitis B virus, 144 h; HBV DNA in HepAD38 supernatant at day 6; read-out: Cell Activity (EC50)
In short: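 EC50 values were obtained by non-linear regression of HBV DNA copy numbers measured by qPCR against pCH-9/3091 plasmid standards. The DNA came from filtered supernatants collected on day 6. Before that, tetracycline-withdrawn HepAD38 cells had been exposed to serial half-log compound dilutions, with tetracycline-treated cells as the non-producing control.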

[2] = target: HBV core protein (UniProt P03146); type: biochemical; conditions: read-out: Assembly Activity (IC50); BODIPY-FL labelled core protein, assembly started with NaCl, read after 6 min
Sequence of HBV core protein (P03146 whole entry, looked up, the tested form may be a part): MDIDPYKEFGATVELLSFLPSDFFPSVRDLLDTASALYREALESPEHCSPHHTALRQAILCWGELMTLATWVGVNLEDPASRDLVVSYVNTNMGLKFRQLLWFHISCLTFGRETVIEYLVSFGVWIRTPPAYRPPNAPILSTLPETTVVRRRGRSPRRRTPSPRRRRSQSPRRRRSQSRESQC
In short: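 Compounds tested at 8 concentrations in 0.5-log steps from 100, 31.6 or 10 μM against 1.0–2.0 μM BODIPY-FL-labelled Cys150 core dimers (residues 1–149), 50 mM HEPES pH 7.5. NaCl ([…] final) triggered assembly; quenching read at 6 min, 477/525 nm, with 2.5 M and 0 M NaCl as controls; EC50 by nonlinear fit.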

| SMILES | EC50 [1] | IC50 [2] |
| --- | --- | --- |
| O=C(Nc1nc2c(s1)CN(C(=O)c1cc3c(F)cc(F)cc3[nH]1)CC2)C1CCOCC1 [Example 319, N-[5-(4,6-difluoro-1H-indole-2-carbonyl)-4H,5H,6H,7H-[1,3]thiazolo[5,4-c]pyridin-2-yl]oxane-4-carboxamide] | < 1 µM | < 5 µM |
| O=C(Nc1nc2c(s1)CN(C(=O)c1cc3c(Cl)cc(F)cc3[nH]1)CC2)C1CCOCC1 [Example 320, N-[5-(4-chloro-6-fluoro-1H-indole-2-carbonyl)-4H,5H,6H,7H-[1,3]thiazolo[5,4-c]pyridin-2-yl]oxane-4-carboxamide] | < 1 µM | 5 to 10 µM |
| Cc1cc(F)cc2[nH]c(C(=O)N3CCc4nc(NC(=O)C5CCOCC5)sc4C3)cc12 [Example 321, N-[5-(6-fluoro-4-methyl-1H-indole-2-carbonyl)-4H,5H,6H,7H-[1,3]thiazolo[5,4-c]pyridin-2-yl]oxane-4-carboxamide] | < 1 µM | < 5 µM |
| O=C(c1cc2c(C(F)F)ccc(F)c2[nH]1)N1CCc2nc(NCC3CCOC3)sc2C1 (stereo not shown) [Example 322, 5-[4-(difluoromethyl)-7-fluoro-1H-indole-2-carbonyl]-N-[(oxolan-3-yl)methyl]-4H,5H,6H,7H-[1,3]thiazolo[5,4-c]pyridin-2-amine] | < 1 µM | < 5 µM |
| O=C(c1cc2c(C(F)F)cccc2[nH]1)N1CCc2nc(NCC3CCOC3)sc2C1 (stereo not shown) [Example 325, 5-[4-(difluoromethyl)-1H-indole-2-carbonyl]-N-[(oxolan-3-yl)methyl]-4H,5H,6H,7H-[1,3]thiazolo[5,4-c]pyridin-2-amine] | < 1 µM | < 5 µM |
| O=C(c1cc2c(C(F)F)cc(F)cc2[nH]1)N1CCc2nc(NCC3CCOC3)sc2C1 (stereo not shown) [Example 326, 5-[4-(difluoromethyl)-6-fluoro-1H-indole-2-carbonyl]-N-[(oxolan-3-yl)methyl]-4H,5H,6H,7H-[1,3]thiazolo[5,4-c]pyridin-2-amine] | < 1 µM | < 5 µM |
| CC(F)(F)c1cc(F)cc2[nH]c(C(=O)N3CCc4nc(NCC5CCOC5)sc4C3)cc12 (stereo not shown) [Example 327, 5-[4-(1,1-difluoroethyl)-6-fluoro-1H-indole-2-carbonyl]-N-[(oxolan-3-yl)methyl]-4H,5H,6H,7H-[1,3]thiazolo[5,4-c]pyridin-2-amine] | < 1 µM | < 5 µM |
| CCc1cc(F)cc2[nH]c(C(=O)N3CCc4nc(NC[C@@H]5CCOC5)sc4C3)cc12 [Example 328, 5-(4-ethyl-6-fluoro-1H-indole-2-carbonyl)-N-{[(3S)-oxolan-3-yl]methyl}-4H,5H,6H,7H-[1,3]thiazolo[5,4-c]pyridin-2-amine] | < 1 µM | < 5 µM |
| CCc1cc(F)cc2[nH]c(C(=O)N3CCc4nc(NC[C@H]5CCOC5)sc4C3)cc12 [Example 329, 5-(4-ethyl-6-fluoro-1H-indole-2-carbonyl)-N-{[(3R)-oxolan-3-yl]methyl}-4H,5H,6H,7H-[1,3]thiazolo[5,4-c]pyridin-2-amine] | < 1 µM | < 5 µM |
| COCC1(C(=O)Nc2nc3c(s2)CN(C(=O)c2cc4ccccc4[nH]2)CC3)CC1 [Example 330, N-[5-(1H-indole-2-carbonyl)-4H,5H,6H,7H-[1,3]thiazolo[5,4-c]pyridin-2-yl]-1-(methoxymethyl)cyclopropane-1-carboxamide] | < 1 µM | 5 to 10 µM |
| O=C(c1cc2ccc(Cl)cc2[nH]1)N1CCc2nc(NCC3(O)CCC3)sc2C1 [Example 331, 1-({[5-(6-chloro-1H-indole-2-carbonyl)-4H,5H,6H,7H-[1,3]thiazolo[5,4-c]pyridin-2-yl]amino}methyl)cyclobutan-1-ol] | < 1 µM | 5 to 10 µM |
| CCc1cccc2[nH]c(C(=O)N3CCc4nc(NC(=O)C5(C)CC5)sc4C3)cc12 [Example 333, N-[5-(4-ethyl-1H-indole-2-carbonyl)-4H,5H,6H,7H-[1,3]thiazolo[5,4-c]pyridin-2-yl]-1-methylcyclopropane-1-carboxamide] | < 1 µM | < 5 µM |
| CCc1cccc2[nH]c(C(=O)N3CCc4nc(NC(=O)C5CCOCC5)sc4C3)cc12 [Example 334, N-[5-(4-ethyl-1H-indole-2-carbonyl)-4H,5H,6H,7H-[1,3]thiazolo[5,4-c]pyridin-2-yl]oxane-4-carboxamide] | < 1 µM | < 5 µM |
| CCc1cccc2[nH]c(C(=O)N3CCc4nc(N[C@H]5CC[C@@H](O)CC5)sc4C3)cc12 [Example 335, (1s,4s)-4-{[5-(4-ethyl-1H-indole-2-carbonyl)-4H,5H,6H,7H-[1,3]thiazolo[5,4-c]pyridin-2-yl]amino}cyclohexan-1-ol] | < 1 µM | < 5 µM |
| N#CC1(C(=O)Nc2nc3c(s2)CN(C(=O)c2cc4ccccc4[nH]2)CC3)CC1 [Example 336, 1-cyano-N-[5-(1H-indole-2-carbonyl)-4H,5H,6H,7H-[1,3]thiazolo[5,4-c]pyridin-2-yl]cyclopropane-1-carboxamide] | < 1 µM | 5 to 10 µM |
| CCc1cccc2[nH]c(C(=O)N3CCc4nc(NCC5(O)CCC5)sc4C3)cc12 [Example 338, 1-({[5-(4-ethyl-1H-indole-2-carbonyl)-4H,5H,6H,7H-[1,3]thiazolo[5,4-c]pyridin-2-yl]amino}methyl)cyclobutan-1-ol] | < 1 µM | < 5 µM |
| COCC1(CNc2nc3c(s2)CN(C(=O)c2cc4ccccc4[nH]2)CC3)CC1 [Example 340, 5-(1H-indole-2-carbonyl)-N-{[1-(methoxymethyl)cyclopropyl]methyl}-4H,5H,6H,7H-[1,3]thiazolo[5,4-c]pyridin-2-amine] | < 1 µM | < 5 µM |
| Nc1nc2c(s1)CN(C(=O)c1cc3c(C(F)F)ccc(F)c3[nH]1)CC2 [Example 341, 5-[4-(difluoromethyl)-7-fluoro-1H-indole-2-carbonyl]-4H,5H,6H,7H-[1,3]thiazolo[5,4-c]pyridin-2-amine] | 1 to 10 µM | < 5 µM |
| O=C(c1cc2c(F)cc(F)cc2[nH]1)N1CCc2nc(N[C@H]3CC[C@@H](O)CC3)sc2C1 [Example 344, (1s,4s)-4-{[5-(4,6-difluoro-1H-indole-2-carbonyl)-4H,5H,6H,7H-[1,3]thiazolo[5,4-c]pyridin-2-yl]amino}cyclohexan-1-ol] | < 1 µM | 5 to 10 µM |
| O=C(c1cc2c(Cl)c(F)ccc2[nH]1)N1CCc2nc(NCC3(O)CCC3)sc2C1 [Example 362, 1-({[5-(4-chloro-5-fluoro-1H-indole-2-carbonyl)-4H,5H,6H,7H-[1,3]thiazolo[5,4-c]pyridin-2-yl]amino}methyl)cyclobutan-1-ol] | < 1 µM | < 5 µM |
| CCc1cc(F)cc2[nH]c(C(=O)N3CCc4nc(NCC5(O)CCC5)sc4C3)cc12 [Example 363, 1-({[5-(4-ethyl-6-fluoro-1H-indole-2-carbonyl)-4H,5H,6H,7H-[1,3]thiazolo[5,4-c]pyridin-2-yl]amino}methyl)cyclobutan-1-ol] | < 1 µM | < 5 µM |
| O=C(c1cc2c(Br)cccc2[nH]1)N1CCc2nc(NCC3(O)CCC3)sc2C1 [Example 364, 1-({[5-(4-bromo-1H-indole-2-carbonyl)-4H,5H,6H,7H-[1,3]thiazolo[5,4-c]pyridin-2-yl]amino}methyl)cyclobutan-1-ol] | < 1 µM | < 5 µM |
| O=C(c1cc2ccc(Br)cc2[nH]1)N1CCc2nc(NCC3(O)CCC3)sc2C1 [Example 365, 1-({[5-(6-bromo-1H-indole-2-carbonyl)-4H,5H,6H,7H-[1,3]thiazolo[5,4-c]pyridin-2-yl]amino}methyl)cyclobutan-1-ol] | < 1 µM | < 5 µM |
| CC(O)c1cc(F)cc2[nH]c(C(=O)N3CCc4nc(NCC5(O)CCC5)sc4C3)cc12 (stereo not shown) [Example 366, 1-[({5-[6-fluoro-4-(1-hydroxyethyl)-1H-indole-2-carbonyl]-4H,5H,6H,7H-[1,3]thiazolo[5,4-c]pyridin-2-yl}amino)methyl]cyclobutan-1-ol] | < 1 µM | < 100 µM |
| O=C(c1cc2c(CO)cccc2[nH]1)N1CCc2nc(NCC3(O)CCC3)sc2C1 [Example 367, 1-[({5-[4-(hydroxymethyl)-1H-indole-2-carbonyl]-4H,5H,6H,7H-[1,3]thiazolo[5,4-c]pyridin-2-yl}amino)methyl]cyclobutan-1-ol] | < 1 µM | < 100 µM |
| Cc1cccc2[nH]c(C(=O)N3CCc4nc(NCC5(O)CCC5)sc4C3)cc12 [Example 370, 1-({[5-(4-methyl-1H-indole-2-carbonyl)-4H,5H,6H,7H-[1,3]thiazolo[5,4-c]pyridin-2-yl]amino}methyl)cyclobutan-1-ol] | < 1 µM | < 5 µM |
| CC(F)(F)c1cc(F)cc2[nH]c(C(=O)N3CCc4nc(NCC5(O)CCC5)sc4C3)cc12 [Example 371, 1-[({5-[4-(1,1-difluoroethyl)-6-fluoro-1H-indole-2-carbonyl]-4H,5H,6H,7H-[1,3]thiazolo[5,4-c]pyridin-2-yl}amino)methyl]cyclobutan-1-ol] | < 1 µM | < 5 µM |
| CC(F)(F)c1cccc2[nH]c(C(=O)N3CCc4nc(NCC5(O)CCC5)sc4C3)cc12 [Example 372, 1-[({5-[4-(1,1-difluoroethyl)-1H-indole-2-carbonyl]-4H,5H,6H,7H-[1,3]thiazolo[5,4-c]pyridin-2-yl}amino)methyl]cyclobutan-1-ol] | 1 to 10 µM | < 5 µM |
| O=C(c1cc2c(F)c(F)ccc2[nH]1)N1CCc2nc(NCC3(O)CCC3)sc2C1 [Example 375, 1-({[5-(4,5-difluoro-1H-indole-2-carbonyl)-4H,5H,6H,7H-[1,3]thiazolo[5,4-c]pyridin-2-yl]amino}methyl)cyclobutan-1-ol] | < 1 µM | < 5 µM |
